SMILES strings stand for the structures.

One may read the IC50 as the midpoint of a concentration-inhibition curve.

One test concerns Prostatic DU 145. Nature of the test: in vitro inhibitory activity against human prostatic cell line DU 145 (Table 3). Format: cell-based. From the text: (§1) Tables 1 to 4 at the end of the present description show in vitro test results obtained in various sets of experiments for the cytotoxic activity of several of the benzazole compounds concerned, including also for reference results for the compound CJM 126 and comparative results for compound DF129, when tested against a range of tumor cell lines which includes ovarian, lung and certain colon and renal cancer cells from the National Cancer Institute (USA) collection. As usual the results are expressed in terms of IS50 values (concentration or dosage required to reduce cell growth or proliferation by 50%) calculated from dose-effect curves plotted for cultures of the cells in question.
(§2) In carrying out the in vitro studies, the cytotoxicity assays may be carried out by a method corresponding substantially to the following example: […]
(§3) On day 7 the test was terminated by the addition of 100 μl saline containing 0.002% w/v propidium iodide (Sigma), 0.3% drawing ink (Staedtler "Marsmatic 745"--Trade Mark) and 0.5% Triton X-100. The plates were kept at 4° C. overnight before reading on an inverted microscope equipped with an automated scanning stage. Fluorescence intensity was measured in arbitrary units by a photomultiplier. […]

Another test deals with L23/P. Nature of the test: in vitro inhibition of growth of human lung cancer cell line L23/P (Table 1). The class given is cell-based.
From the text: as §1
(§4) In carrying out the in vitro studies, the cytotoxicity assays may be carried out by a method corresponding substantially to the following example:
(§5) Cells were maintained in a continuous logarithmic culture in Dublecco's medium supplemented with 10% fetal calf serum and penicillin (100 IU/ml) and streptomycin ([…]). The cells were mildly trypsinized for passage and for use in assays. On day zero, 100 μl of trypsinized tumor cells (1×10^4 /ml) were plated in the wells of 96-well flat-bottom microtiter plates. The plates were incubated for 2 days at 37° C. and 5% CO2 in air to allow the cells to adhere and resume exponential growth prior to the addition of drugs.
(§6) On day two 50 μl of the highest drug concentration was added to the wells of column 12 and from there serially diluted 3-fold to column 1 by serial transfer of 50 μl using an 8-channel micropipette. The final volume of column 1 was adjusted to 100 μl. No additions were made to the wells of rows A and B, which served as controls. The plates were further incubated for 5 days at 37° C. and 5% CO2 in air. Each compound was tested in duplicate.
(§7) On day 7 the test was terminated by the addition of 100 μl saline containing 0.002% w/v propidium iodide (Sigma), 0.3% drawing ink (Staedtler "Marsmatic 745"--Trade Mark) and 0.5% Triton X-100. The plates were kept at 4° C. overnight before reading on an inverted microscope equipped with an automated scanning stage. Fluorescence intensity was measured in arbitrary units by a photomultiplier. An HP-87 computer controlled the movement of the stage and also collected and processed the data from the multiplier.
(§8) For each compound tested a dose-response curve was obtained and the IC50 value (the drug concentration at 50% inhibition of cell growth) was calculated.

For a further test, the system named is A2780. Description: in vitro activity against human ovarian cell line A2780 (Table 2). Format: cell-based. As to conditions: Homo sapiens; A2780 (parental line).
From the text: (§9) As usual the results are expressed in terms of IS50 values (concentration or dosage required to reduce cell growth or proliferation by 50%) calculated from dose-effect curves plotted for cultures of the cells in question.
as §4, §5, §6
(§10) The plates were kept at 4° C. overnight before reading on an inverted microscope equipped with an automated scanning stage. Fluorescence intensity was measured in arbitrary units by a photomultiplier. An HP-87 computer controlled the movement of the stage and also collected and processed the data from the multiplier.

The test system of another test is H69/P. Nature of the test: in vitro inhibition of growth of human lung cancer cell line H69/P (Table 1). The class given is cell-based.
From the text: as §1, §4, §5, §6, §7, §8

Another test has as its system MOR/P. Description: in vitro inhibition of growth of human lung cancer cell line MOR/P (Table 1). The class given is cell-based. The settings on record: MOR/P (parental line).
From the text: as §1, §4, §5, §6, §7, §8

For the next test, the system named is OVCAR-8. Nature of the test: in vitro activity against human ovarian cell line OVCAR-8 (Table 2). Format: cell-based.
From the text: as §1, §2, §3

For another test, the system named is LX4. Nature of the test: in vitro inhibition of growth of human lung cancer cell line LX4 (Table 1). The class given is cell-based.
From the text: as §1, §4, §5, §6, §7, §8

A further test deals with OVCAR-4. Nature of the test: in vitro activity against human ovarian cell line OVCAR-4 (Table 2). Format: cell-based.
From the text: as §1, §2, §3

A further test relates to A2780-cisR. Description: in vitro activity against human ovarian cell line A2780-cisR (Table 2). Format: cell-based. The settings on record: for IC50: Homo sapiens, A2780cisR, A2780-cisR (platinum-resistant); for activity against A2780-cisR compared to the parental line A2780: words, Table 2.
From the text: as §9, §4, §5, §6, §10

The next test deals with Colon HCC-2998. Nature of the test: in vitro inhibitory activity against human colon cell line HCC-2998 (Table 3). Format: cell-based.
From the text: as §1, §2, §3

The subject of test [1] is human breast cancer cell lines. Nature of the test: in vitro inhibition of human breast cancer cell lines. Format: cell-based. The settings on record: words, Table 4.
From the text: as §1, §4, §5, §6, §7, §8

A further test has as its system CH1. Nature of the test: in vitro activity against human ovarian cell line CH1 (Table 2). The class given is cell-based. As to conditions: Homo sapiens.
From the text: as §9, §4, §5, §6, §10

In another test the test system is Renal ACHN. Description: in vitro inhibitory activity against human renal cell line ACHN (Table 3). The class given is cell-based.
From the text: as §1, §2, §3

A further test concerns MOR/CPR. Description: in vitro inhibition of growth of human lung cancer cell line MOR/CPR (Table 1). Format: cell-based. As to conditions: for IC50: Homo sapiens, MOR/CPR (cisplatin resistant line); for activity against MOR/CPR relative to MOR/P and MOR/R: words, Table 1.
From the text: as §1, §4, §5, §6, §7, §8

In test [2] the test system is xenotransplanted breast carcinomas. Description: in vivo activity in panel of xenotransplanted breast carcinomas. The settings on record: words; DF203 panel of four, DF129 two carcinomas. On the set-up: species or system human (xenotransplanted in nude mice). As to the method: (§11) In one typical set of experiments, four human breast carcinomas xenotransplanted into female Ncr: nu/nu (Taconic, Germantown, U.S.A.) or male Bom: NMRI-nu/nu mice (Bomholtgaard, Ry, Denmark) were used for the evaluation of antitumor activity. Mice weighing 20-25 g at the start of experiments were held under sterile conditions at 24-26° C., 50% relative humidity and 12 hours light-dark rhythm in laminar flow shelves. The animals received autoclaved food and bedding; the drinking water was filtered and acidified (pH4.0).
The following breast carcinoma cell lines were used: BO; MCF-7 (NCI, U.S.A.); MT-1 and MT-3. The tumors BO and MCF-7 are ER^+ models: the carcinomas MT-1 and MT-3 are ER^- ones. Tumors were transplanted subcutaneously (s.c.) as pieces (2×2 mm) into the left flank of 5-8 nude mice/experimental group. Drug treatment was initiated when the tumors reached a diameter of 4-5 mm. […] Tumor size was measured twice weekly with a caliper. Median tumor volume/group was related to the first treatment day and expressed as Relative Tumor Volume (RTV). For the estimation of toxicity, body weight was determined twice weekly and the mean percentage body weight change (BCC) was calculated. In one experiment blood was obtained from the retroorbital venous plexus of mice and blood cells were determined with a Coulter counter (Model T41).

The test system of the next test is NCI-H226. Nature of the test: in vitro inhibition of growth of human lung cancer cell line NCI-H226 (Table 1). The class given is cell-based.
From the text: as §1, §2, §3

In another test the test system is IGR-OV1. Description: in vitro activity against human ovarian cell line IGR-OV1 (Table 2). Format: cell-based. The settings on record: IGROV-1.
From the text: as §1, §2, §3

Another test relates to MCF-7. Nature of the test: in vivo antitumor test, human breast carcinoma MCF-7 xenotransplanted in nude mice. The settings on record: for evaluation / RTV, relative tumor volume (T/C %): qd 12, 19, 26; for RTV, relative tumor volume (T/C %): marked * significant versus control. As for the experimental part: as §11
The following breast carcinoma cell lines were used: BO; MCF-7 (NCI, U.S.A.); MT-1 and MT-3. The tumors BO and MCF-7 are ER^+ models: the carcinomas MT-1 and MT-3 are ER^- ones. Tumors were transplanted subcutaneously (s.c.) as pieces (2×2 mm) into the left flank of 5-8 nude mice/experimental group. Drug treatment was initiated when the tumors reached a diameter of 4-5 mm. Compounds were solubized with Tween 80 (maximum 10% of final volume) and suspended in saline. Suspensions were preparted freshly for each drug administration and injected in a volume of 0.2 mL/20 g body weight employing a once-weekly schedule (x3). Tumor size was measured twice weekly with a caliper. Median tumor volume/group was related to the first treatment day and expressed as Relative Tumor Volume (RTV). For the estimation of toxicity, body weight was determined twice weekly and the mean percentage body weight change (BCC) was calculated. In one experiment blood was obtained from the retroorbital venous plexus of mice and blood cells were determined with a Coulter counter (Model T41).
Some of the in vivo test results are shown in Tables 5 and 6 at the end of the present description, and in FIG. 1 of the accompanying drawing which illustrates the results for measurements of in vivo activity of 2-(4'-amino-3'-methylphenyl) benzothiazole (DF203) against MCF7 in nude mice administered on days 12, 19 and 26.

Another test relates to MOR/R. Description: in vitro inhibition of growth of human lung cancer cell line MOR/R (Table 1). The class given is cell-based. As to conditions: MOR/R (multidrug resistant line).
From the text: as §1, §4, §5, §6, §7, §8

The mark [3] stands for this setting: MCF-7, optimum dose 200 mg/Kg/inj i.p.
The mark [4] stands for this setting: MCF-7, optimum dose 12.5 mg/Kg/inj i.p.

As for `Nc1ccc(-c2nc3ccccc3s2)cc1I` [DF129, 2-(4'-amino-3'-iodophenyl)benzothiazole], the IC50 was 52000 nM in the test with Prostatic DU 145; 100 nM with L23/P; > 100000 nM in the test with A2780; > 10000 nM in the test with H69/P; 300 nM in the test with MOR/P; > 100000 nM in the test with OVCAR-8. Moreover, the IC50 was > 10000 nM in the test with LX4; 200 nM in the test with OVCAR-4; 41000 nM in the test with A2780-cisR; < 1000 nM in the test with Colon HCC-2998; 30000 nM in the test with CH1; > 100000 nM with Renal ACHN. Moreover, the IC50 is 25 nM in the test on MOR/CPR, 300 nM in the test with NCI-H226, < 100 nM in the test with IGR-OV1 and 100 nM in the test with MOR/R. Moreover, in the test with A2780-cisR, the “activity against A2780-cisR compared to the parental line A2780” value is recorded as “increased activity”. Further, the “potency against breast cancer cells relative to CJM 126” value in test [1] is “more potent than even the compound CJM 126”. In the test on MOR/CPR, the “activity against MOR/CPR relative to MOR/P and MOR/R” value is reported as “more active against the MOR/CPR line than against the two other lines”. Also, in test [2], the “in vivo activity in xenotransplanted breast carcinomas” value was “only borderline activity in one of the models”. Besides, the evaluation entry with MCF-7 (setting [3]) is recorded as “(+) (T/C % ≥ 51%)”. Besides, the “RTV, relative tumor volume (T/C %)” value in the test with MCF-7 (setting [3]) was 68%.

On to `Cc1cc(-c2nc3ccccc3s2)ccc1N` [DF203, 2-(4'-amino-3'-methylphenyl)benzothiazole], for which the IC50 in the test on Prostatic DU 145 was > 100000 nM; in the test on L23/P, 10000 nM; in the test on A2780 it was > 100000 nM; with H69/P, > 10000 nM; with MOR/P, 100 nM; in the test on OVCAR-8, > 100000 nM. Besides, the IC50 in the test on LX4 was > 10000 nM; with OVCAR-4, < 1000 nM; in the test with A2780-cisR, 18000 nM; in the test with Colon HCC-2998, < 1000 nM; in the test with CH1, 19000 nM; in the test on Renal ACHN it was ~100000 nM. Also, the IC50 is 40 nM in the test on MOR/CPR, 300 nM in the test on NCI-H226, < 100 nM in the test with IGR-OV1 and 70 nM in the test with MOR/R. The “activity against A2780-cisR compared to the parental line A2780” value in the test with A2780-cisR is listed as “increased activity”. Further, the “potency against breast cancer cells relative to CJM 126” value in [1] was “more potent than even the compound CJM 126”. Further, the “activity against MOR/CPR relative to MOR/P and MOR/R” value in the test with MOR/CPR was “more active against the MOR/CPR line than against the two other lines”. Besides, the “in vivo activity in xenotransplanted breast carcinomas” value in test [2] is “consistent tumor growth inhibition in all four tumors”. The evaluation entry with MCF-7 (setting [4]) is given as “++ (T/C = 21-35%)”. Besides, in the test with MCF-7 (setting [4]), the “RTV, relative tumor volume (T/C %)” value stood at 31%. For the same compound, the “tumor status of surviving animal” value in the test with MCF-7 (top dose 25 mg/Kg) is listed as “tumor free”.

The record behind these values is patent US6034246A, “2-arylbenzazole compounds” (Cancer Research Campaign Technology Limited, priority 1995, dated 2000).
